Source: a compilation of properties of binary mixtures (doi:10.1039/c2cc30374d)

Assay: xn = mol fraction of the nth substance listed
Conditions: 101 kPa

CCOS(=O)(=O)[O-].CC[n+]1ccn(C)c1 + [N-]=C=S.[NH4+]
x2 = 0
Conditions | electrical conductivity [S/m] | viscosity [mPa·s]
298.15 K | 0.38 | 95.9
303.15 K | 0.468 | 75.63
308.15 K | 0.566 | 60.66
313.15 K | 0.675 | 49.45
318.15 K | 0.856 | 40.88
323.15 K | 1 | 34.24
328.15 K | – | 28.99
333.15 K | – | 24.81

[N-]=C=S.[NH4+] + CCOS(=O)(=O)[O-].CC[n+]1ccn(C)c1
Conditions | electrical conductivity [S/m] | viscosity [mPa·s]
298.15 K, x1 = 0.1553 | 0.319 | 150
298.15 K, x1 = 0.4042 | 0.279 | 231.1
298.15 K, x1 = 0.5205 | 0.281 | 224
298.15 K, x1 = 0.565 | 0.295 | 215.9
298.15 K, x1 = 0.5997 | 0.301 | 208.9
303.15 K, x1 = 0.0235 | 0.461 | 81.3
303.15 K, x1 = 0.1553 | 0.398 | 118
303.15 K, x1 = 0.3025 | 0.358 | 163.3
303.15 K, x1 = 0.4042 | 0.353 | 178.7
303.15 K, x1 = 0.5205 | 0.358 | 173.4
303.15 K, x1 = 0.5997 | 0.385 | 168.2
308.15 K, x1 = 0.0235 | 0.56 | 65.16
308.15 K, x1 = 0.1553 | 0.486 | 94.3
308.15 K, x1 = 0.5205 | 0.446 | 135.3
308.15 K, x1 = 0.565 | 0.468 | 133.9
308.15 K, x1 = 0.5997 | 0.481 | 133.7
313.15 K, x1 = 0.0235 | 0.67 | 53.09
313.15 K, x1 = 0.1553 | 0.584 | 76.57
313.15 K, x1 = 0.3025 | 0.531 | 104.6
313.15 K, x1 = 0.4042 | 0.526 | 112.9
313.15 K, x1 = 0.5205 | 0.546 | 107.5
313.15 K, x1 = 0.565 | 0.573 | 106
318.15 K, x1 = 0.0235 | 0.846 | 43.86
318.15 K, x1 = 0.1553 | 0.739 | 63.03
318.15 K, x1 = 0.3025 | 0.633 | 85.6
318.15 K, x1 = 0.4042 | 0.633 | 91.8
318.15 K, x1 = 0.5997 | 0.751 | 84.6
323.15 K, x1 = 0.0235 | 0.99 | 36.68
323.15 K, x1 = 0.1553 | 0.867 | 52.56
323.15 K, x1 = 0.3025 | 0.795 | 70.9
323.15 K, x1 = 0.4042 | 0.795 | 75.6
323.15 K, x1 = 0.5205 | 0.831 | 71.22
323.15 K, x1 = 0.5997 | 0.896 | 68.92
328.15 K, x1 = 0.0235 | – | 31.04
328.15 K, x1 = 0.1553 | – | 44.26
328.15 K, x1 = 0.3025 | – | 59.41
328.15 K, x1 = 0.4042 | – | 63.04
328.15 K, x1 = 0.5205 | – | 59.16
328.15 K, x1 = 0.565 | – | 57.79
328.15 K, x1 = 0.5997 | – | 56.96
333.15 K, x1 = 0.1553 | – | 37.68
333.15 K, x1 = 0.5205 | – | 49.72
333.15 K, x1 = 0.565 | – | 48.47

[N-]=C=S.[NH4+] + CC(=O)[O-].CC[n+]1ccn(C)c1
Conditions | electrical conductivity [S/m] | viscosity [mPa·s]
298.15 K, x1 = 0.02 | 0.294 | 136.6
298.15 K, x1 = 0.1002 | 0.284 | 160.2
298.15 K, x1 = 0.1998 | 0.296 | 190.7
298.15 K, x1 = 0.2514 | 0.314 | 198.6
298.15 K, x1 = 0.3413 | 0.358 | 196.4
303.15 K, x1 = 0.02 | 0.382 | 100.9
303.15 K, x1 = 0.2514 | 0.411 | 144.4
303.15 K, x1 = 0.3199 | 0.458 | 142.8
303.15 K, x1 = 0.3413 | 0.463 | 143.6
308.15 K, x1 = 0.02 | 0.483 | 76.4
308.15 K, x1 = 0.1002 | 0.473 | 88.5
308.15 K, x1 = 0.3001 | 0.569 | 105.9
308.15 K, x1 = 0.3199 | 0.58 | 106.6
313.15 K, x1 = 0.02 | 0.601 | 59.3
313.15 K, x1 = 0.1002 | 0.593 | 68.1
313.15 K, x1 = 0.1998 | 0.617 | 79.3
313.15 K, x1 = 0.2514 | 0.66 | 81.5
313.15 K, x1 = 0.3001 | 0.782 | 80.5
313.15 K, x1 = 0.3199 | 0.797 | 81.1
318.15 K, x1 = 0.02 | 0.82 | 46.9
318.15 K, x1 = 0.1002 | 0.811 | 53.3
318.15 K, x1 = 0.2514 | 0.901 | 62.9
318.15 K, x1 = 0.3001 | 0.968 | 62.3
318.15 K, x1 = 0.3199 | 0.986 | 62.8
318.15 K, x1 = 0.3413 | 0.997 | 63.3
323.15 K, x1 = 0.02 | 0.986 | 37.8
323.15 K, x1 = 0.1002 | 0.987 | 42.5
323.15 K, x1 = 0.1998 | 1.04 | 48.4
323.15 K, x1 = 0.2514 | 1.1 | 49.3
323.15 K, x1 = 0.3001 | 1.18 | 48.9
323.15 K, x1 = 0.3199 | 1.2 | 49.3
323.15 K, x1 = 0.3413 | 1.21 | 49.8
328.15 K, x1 = 0.02 | – | 30.91
328.15 K, x1 = 0.1998 | – | 38.62
328.15 K, x1 = 0.2514 | – | 39.15
328.15 K, x1 = 0.3001 | – | 38.91
328.15 K, x1 = 0.3413 | – | 39.67
333.15 K, x1 = 0.2514 | – | 31.49
333.15 K, x1 = 0.3199 | – | 31.67
333.15 K, x1 = 0.3413 | – | 32

CC(=O)[O-].CC[n+]1ccn(C)c1 + [N-]=C=S.[NH4+]
x2 = 0
Conditions | electrical conductivity [S/m] | viscosity [mPa·s]
298.15 K | 0.295 | 128.4
303.15 K | 0.383 | 95.1
308.15 K | 0.483 | 72.4
318.15 K | 0.819 | 44.8
323.15 K | 0.984 | 36.27
328.15 K | – | 29.81
333.15 K | – | 24.86
